Test results: patent US20120052175A1 (priority 2010, published 2012)

Assay: Moisture sensitivity test: hydrolytic degradation of isothiocyanate in aqueous phosphate buffer
Type: physicochemical
Conditions: white mustard essential oil (about 25% 4-HBITC) suspended in aqueous phosphate buffer pH about 3.6, about 20-23° C., about 24 hours
Experimental: Supercritical fluid chromatography can be used to determine the amount of 4-hydroxybenzyl isothiocyanate in a preservative composition. First an accurately weighed amount of the preservative composition is either dissolved in a compatible solvent such as ethyl acetate or ethyl acetate and ethanol mixtures or solid preservative compositions are extracted repeatedly with ethyl acetate.
These solutions are analyzed by supercritical fluid chromatography using the method described by Buskov, S. et al., “Supercritical fluid chromatography as a method of analysis for the determination of 4-hydroxybenzylglucosinolate degradation products,” Journal of Biochemical and Biophysical Methods, Vol. 43, pp 157-174 (2000) with the following modifications. A Berger SFC 3D system equipped with a photodiode array detector (Berger Instruments Inc., Newark, Del.) is used for the analysis. […] The eluate is detected at 226 and 252 nm. […]
Moisture sensitive isothiocyanate compounds are identified by suspending the isothiocyanate containing material in an aqueous phosphate buffer (pH of about 3.6) at room temperature. […] The extraction procedure is repeated after 24 hours and the level of residual isothiocyanate compound is measured by supercritical fluid chromatography. […]

## Oc1ccc(CN=C=S)cc1 [4-hydroxybenzyl isothiocyanate]
  percent reduction in level of 4-hydroxybenzyl isothiocyanate after 24 hours: about 72%
